Tested on: fecal short-chain fatty acids
Experiment: Fecal short-chain fatty acids of mice with hyperuricemia
Assay type: in vivo
Details: feces at the end of the experiment
Protocol: 24 healthy male KM mice with the weight of 38 to 44 g were randomly divided into four groups after a week of acclimatization, namely a control group, a hyperuricemia model group, an L. gasseri CCFM1133 intervention group (CCFM1133) and an allopurinol intervention group (allopurinol). Except the control group, 500 mg/kg BW hypoxanthine was given to the other groups every day by intragastric administration, and 100 mg/kg BW oteracil potassium was intraperitoneally injected to the other groups every day. At 1 h before processing with hypoxanthine and oteracil potassium, 0.4 mL of 30 g/L sucrose (a control solvent) was given to the control group and the hyperuricemia model group, L. gasseri CCFM1133 bacterial suspension (30 g/L sucrose solution containing L. gasseri CCFM1133 thallus) with the concentration of 1×10^9 CFU/mouse was given to the L. gasseri CCFM1133 intervention group, and 5 mg/kg BW allopurinol was given to the allopurinol group. […]
The short-chain fatty acids were separated by using an Rtx-Wax column. The short-chain fatty acids (acetic acid, propionic acid, isobutyric acid, butyric acid, isovaleric acid and valeric acid) were detected in a full scanning mode (the mass-to-charge ratio scanning range is 33 to 110). Characteristic ions of analyte standards were selected for quantitative analysis.

In the case of `Oc1ncnc2[nH]ncc12` [allopurinol], the “Effect on fecal short-chain fatty acid levels (acetic, propionic, isobutyric, butyric, isovaleric and valeric acid)” value is reported as “does not have much of the effect”.
